Measurements: the supplement of paper PMC10307832

Legend:
Assay in all cases: relative viability (nuclei count vs DMSO), 5 days (fraction); higher = more cells survive
[1] = compound: NC(=O)[C@@H](CCC(F)(F)F)N(Cc1ccc(-c2ncon2)cc1F)S(=O)(=O)c1ccc(Cl)cc1 [Avagacestat] + CC(=O)c1c(C)c2cnc(Nc3ccc(N4CCNCC4)cn3)nc2n(C2CCCC2)c1=O [Palbociclib] (partner 0.5 µM)
In short: (§1)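 Cells from lung cancer lines were seeded into 1536-well plates and, one day later, dosed by pin tool. Treatments were either a single drug or a fixed dose of an anchor drug with five library-drug doses (not always all listed) in √10 steps. After 5 days, nuclei were stained in a one-step fixation (final 0.05% Triton X-100, 1% formaldehyde, 1 ug/ml Hoechst) and counted on 4× images, and relative viability is the treated-to-vehicle nuclei ratio, as the median of duplicate plates.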

Avagacestat + Luminespib = compound: NC(=O)[C@@H](CCC(F)(F)F)N(Cc1ccc(-c2ncon2)cc1F)S(=O)(=O)c1ccc(Cl)cc1 [Avagacestat] + CCNC(=O)c1noc(-c2cc(C(C)C)c(O)cc2O)c1-c1ccc(CN2CCOCC2)cc1 [Luminespib] (partner 0.01 µM)
In short: as §1

Avagacestat + OSI-027 = compound: NC(=O)[C@@H](CCC(F)(F)F)N(Cc1ccc(-c2ncon2)cc1F)S(=O)(=O)c1ccc(Cl)cc1 [Avagacestat] + COc1cccc2cc(-c3nc([C@H]4CC[C@H](C(=O)O)CC4)n4ncnc(N)c34)[nH]c12 [OSI-027] (partner 0.5 µM)
In short: as §1

Avagacestat + Pictilisib = compound: NC(=O)[C@@H](CCC(F)(F)F)N(Cc1ccc(-c2ncon2)cc1F)S(=O)(=O)c1ccc(Cl)cc1 [Avagacestat] + CS(=O)(=O)N1CCN(Cc2cc3nc(-c4cccc5[nH]ncc45)nc(N4CCOCC4)c3s2)CC1 [Pictilisib] (partner 1 µM)
In short: as §1

Row | Cell Line | relative viability ([1]; first compound 0.08 µM) | relative viability ([1]; first compound 0.253 µM) | relative viability ([1]; first compound 0.8 µM) | relative viability ([1]; first compound 2.53 µM) | relative viability ([1]; first compound 8 µM) | relative viability (Avagacestat + Luminespib; first compound 0.08 µM) | relative viability (Avagacestat + Luminespib; first compound 0.253 µM) | relative viability (Avagacestat + Luminespib; first compound 0.8 µM) | relative viability (Avagacestat + Luminespib; first compound 2.53 µM) | relative viability (Avagacestat + Luminespib; first compound 8 µM) | relative viability (Avagacestat + OSI-027; first compound 0.08 µM) | relative viability (Avagacestat + OSI-027; first compound 0.253 µM) | relative viability (Avagacestat + OSI-027; first compound 0.8 µM) | relative viability (Avagacestat + OSI-027; first compound 2.53 µM) | relative viability (Avagacestat + OSI-027; first compound 8 µM) | relative viability (Avagacestat + Pictilisib; first compound 0.08 µM) | relative viability (Avagacestat + Pictilisib; first compound 0.253 µM) | relative viability (Avagacestat + Pictilisib; first compound 0.8 µM) | relative viability (Avagacestat + Pictilisib; first compound 2.53 µM) | relative viability (Avagacestat + Pictilisib; first compound 8 µM)
1 | LOU-NH91 | 0.533 | 0.482 | 0.574 | 0.52 | 0.525 | 0.311 | 0.341 | 0.31 | 0.331 | 0.342 | 0.688 | 0.656 | 0.789 | 0.723 | 0.716 | 0.491 | 0.475 | 0.559 | 0.515 | 0.498
2 | HARA | 0.26 | 0.237 | 0.248 | 0.263 | 0.24 | 0.783 | 0.201 | 0.614 | 0.536 | 0.87 | 0.603 | 0.57 | 0.484 | 0.383 | 0.49 | 0.368 | 0.517 | 0.417 | 0.342 | 0.373
3 | HCC-827 | 0.468 | 0.478 | 0.503 | 0.442 | 0.465 | 0.711 | 0.927 | 0.586 | 0.324 | 0.578 | 0.892 | 0.688 | 0.818 | 0.668 | 0.703 | 1.13 | 1.08 | 0.797 | 0.941 | 0.897
4 | NCI-H1703 | – | – | – | – | – | – | – | – | – | – | – | – | – | – | – | 0.305 | 0.242 | 0.226 | 0.217 | 0.225
5 | NCI-H2405 | 0.512 | 0.532 | 0.478 | 0.448 | 0.489 | 0.638 | 0.856 | 0.58 | 0.665 | 0.466 | 0.628 | 0.638 | 0.603 | 0.571 | 0.516 | 0.432 | 0.465 | 0.473 | 0.329 | 0.377
6 | PC-3 [JPC-3] | 0.544 | 0.574 | 0.66 | 0.562 | 0.6 | 0.677 | 0.81 | 0.785 | 0.671 | 0.628 | 0.912 | 0.799 | 0.908 | 0.697 | 0.735 | 0.806 | 0.903 | 0.794 | 0.772 | 0.72
7 | NCI-H2085 | 0.464 | 0.469 | 0.478 | 0.468 | 0.511 | 0.438 | 0.481 | 0.729 | 0.414 | 0.472 | 0.928 | 0.837 | 0.898 | 0.742 | 0.897 | 0.543 | 0.461 | 0.518 | 0.501 | 0.46
8 | 201T | 0.361 | 0.307 | 0.382 | 0.331 | 0.352 | 1.11 | 1.05 | 1 | 0.964 | 1.04 | 0.803 | 0.988 | 0.942 | 0.529 | 0.76 | 0.737 | 0.7 | 0.664 | 0.691 | 0.661
9 | NCI-H1975 | 0.688 | 0.633 | 0.887 | 0.599 | 0.536 | 0.216 | 0.164 | 0.207 | 0.182 | 0.154 | 0.874 | 0.709 | 0.873 | 0.582 | 0.603 | 0.338 | 0.289 | 0.325 | 0.258 | 0.298
10 | NCI-H2023 | 0.363 | 0.327 | 0.33 | 0.316 | 0.294 | 1.06 | 0.862 | 0.952 | 0.514 | 0.762 | 0.471 | 0.466 | 0.505 | 0.344 | 0.302 | 0.249 | 0.225 | 0.255 | 0.184 | 0.185
11 | BEN | 0.466 | 0.456 | 0.502 | 0.513 | 0.482 | 0.396 | 0.308 | 0.675 | 0.326 | 0.238 | 0.313 | 0.303 | 0.544 | 0.303 | 0.327 | 0.679 | 0.621 | 0.58 | 0.529 | 0.534
12 | RERF-LC-KJ | 1.16 | 1.23 | 1.2 | 1.09 | 1.14 | 1.72 | 1.39 | 1.36 | 1.35 | 1.13 | 0.57 | 0.65 | 0.695 | 0.54 | 0.547 | 0.526 | 0.599 | 0.549 | 0.464 | 0.617
13 | SK-MES-1 | 0.318 | 0.342 | 0.329 | 0.307 | 0.32 | 0.863 | 0.865 | 0.724 | 0.616 | 0.788 | 0.601 | 0.675 | 0.728 | 0.473 | 0.448 | 0.377 | 0.387 | 0.306 | 0.294 | 0.288
14 | PC-14 | 0.645 | 0.618 | 0.687 | 0.461 | 0.524 | 0.151 | 0.162 | 0.162 | – | 0.176 | 1.19 | 0.888 | 0.749 | 0.599 | 0.74 | 1.06 | 0.627 | 0.673 | 0.544 | 0.539
15 | NCI-H1437 | 0.329 | 0.341 | 0.361 | 0.306 | 0.294 | 1.4 | 1.28 | 1.12 | 1.17 | 1.05 | 0.924 | 0.949 | 0.817 | 0.856 | 0.777 | 0.388 | 0.399 | 0.417 | 0.399 | 0.366
16 | NCI-H1993 | 0.758 | 0.714 | 0.705 | 0.572 | 0.638 | 0.93 | 0.91 | 1.04 | 0.752 | 0.842 | 0.583 | 0.548 | 0.536 | 0.524 | 0.521 | 0.675 | 0.664 | 0.856 | 0.817 | 0.696
